The values below come from US11708344B2, “Flavone derivatives for the treatment and prophylaxis of hepatitis B virus disease” (Hoffmann-La Roche Inc., priority 2018, dated 2023).

Data set [1] concerns HBeAg (surrogate marker for cccDNA) in HepDES19 cells. Put plainly: Engineered HepDES19 primary screen assay (HBeAg ELISA). The class given is cell-based, HBV. The following applies: Hepatitis B virus, HepDES19, 120 h, read-out: IC50 (HBeAg level, HepDES19 primary screen assay), HepDES19 cells, 5 days compound incubation, HBeAg ELISA. The method in brief: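 HepDES19 cells were induced by Tet withdrawal for 8 days, then treated with half-log compound dilutions (1% DMSO final) for 5 days at 37 °C. HBeAg was measured by ELISA as the cccDNA surrogate, viability by CCK-8, and IC50 from a 4-parameter logistic fit.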

Data set [2] can be described thus: Human microsome stability assay. It counts as in vitro ADME. The conditions noted are these: human liver microsomes, 1 μM test compound, 0.5 mg/mL microsomal protein, 37° C., pH 7.4, 0-30 minutes. The method in brief:
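Compound (1 μM) incubated at 37 °C with human liver microsomes (0.5 mg/mL protein) in 100 mM potassium phosphate, pH 7.4, after 10 min preincubation; started with NADPH regenerating system. Sampled at 0–30 min, quenched with cold ACN; remaining parent quantified by LC-MS/MS, with no-NADPH controls.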
(In general: Liver microsomes are vesicles of endoplasmic reticulum, rich in cytochrome P450 enzymes.)

pIC50: −log10 of the molar value.

Turning to `O=c1cc(-c2ccc(C(F)(F)F)cc2O[C@H]2C[C@H](C(=O)O)C2)oc2c(Cl)ccc(O)c12` [Example B038-B, Trans-3-[2-(8-chloro-5-hydroxy-4-oxo-chromen-2-yl)-5-(trifluoromethyl)phenoxy]cyclobutanecarboxylic acid], in data set [1], the pIC50 is 6.51. Also, in data set [2], the “Clearance of Human microsome” value is 9.59 mL/min/kg.

With `CCOc1ccc(-c2cc(=O)c3c(O)ccc(Cl)c3o2)c(O[C@H]2C[C@H](C(=O)O)C2)c1` [Example B039-B, Trans-3-[2-(8-chloro-5-hydroxy-4-oxo-chromen-2-yl)-5-ethoxy-phenoxy]cyclobutanecarboxylic acid], the pIC50 in data set [1] was 4.94. The “Clearance of Human microsome” value in data set [2] was determined as 6.15 mL/min/kg.

For the compound `Cc1cc(-c2cc(=O)c3c(O)ccc(Cl)c3o2)c(O[C@H]2C[C@H](C(=O)O)C2)cc1Br` [Example B040-B, trans-3-[5-bromo-2-(8-chloro-5-hydroxy-4-oxo-chromen-2-yl)-4-methyl-phenoxy]cyclobutanecarboxylic acid], the pIC50 in data set [1] was 5.53. Besides, in data set [2], the “Clearance of Human microsome” value stood at 6.29 mL/min/kg.

On to `O=C(O)CCCOc1cc(C(F)(F)F)ccc1-c1cc(=O)c2c(O)ccc(Cl)c2o1` [Example B041, 4-[2-(8-chloro-5-hydroxy-4-oxo-chromen-2-yl)-5-(trifluoromethyl)phenoxy]butanoic acid], for which, in data set [1], the pIC50 is 6.54. Further, the “Clearance of Human microsome” value in data set [2] is listed as 6.15 mL/min/kg.

Turning to `COc1cc(OC2CC(C(=O)O)C2)c(-c2cc(=O)c3c(O)ccc(Cl)c3o2)cc1OC` (centres unmarked) [Example B042, 3-[2-(8-chloro-5-hydroxy-4-oxo-chromen-2-yl)-4,5-dimethoxy-phenoxy]cyclobutanecarboxylic acid], the pIC50 in data set [1] is 6.06. The “Clearance of Human microsome” value in data set [2] came to 6.15 mL/min/kg.

Take `O=c1cc(-c2ccc(C(F)(F)F)cc2O[C@H]2C[C@@H](C(=O)NS(=O)(=O)C3CC3)C2)oc2c(Cl)cccc12` [Example B043-A, cis-3-[2-(8-chloro-4-oxo-chromen-2-yl)-5-(trifluoromethyl)phenoxy]-N-cyclopropylsulfonyl-cyclobutanecarboxamide]: the pIC50 in data set [1] was 5.85. Besides, in data set [2], the “Clearance of Human microsome” value is listed as 6.15 mL/min/kg.

For the compound `CS(=O)(=O)NC(=O)[C@H]1C[C@@H](Oc2cc(Br)ccc2-c2cc(=O)c3cccc(Cl)c3o2)C1` [Example B044-A, cis-3-[5-bromo-2-(8-chloro-4-oxo-chromen-2-yl)phenoxy]-N-methylsulfonyl-cyclobutanecarboxamide], in data set [1], the pIC50 is 5.34. Also, in data set [2], the “Clearance of Human microsome” value was determined as 6.15 mL/min/kg.

As for `CS(=O)(=O)NC(=O)[C@H]1C[C@H](Oc2cc(Br)ccc2-c2cc(=O)c3cccc(Cl)c3o2)C1` [Example B044-B, trans-3-[5-bromo-2-(8-chloro-4-oxo-chromen-2-yl)phenoxy]-N-methylsulfonyl-cyclobutanecarboxamide], the pIC50 in data set [1] is 5.43. The “Clearance of Human microsome” value in data set [2] was determined as 6.15 mL/min/kg.

Regarding `CS(=O)(=O)NC(=O)[C@H]1C[C@H](Oc2cc(OC(F)(F)F)ccc2-c2cc(=O)c3cccc(Cl)c3o2)C1` [Example B047-B, Trans-3-[2-(8-chloro-4-oxo-chromen-2-yl)-5-(trifluoromethoxy)phenoxy]-N-methylsulfonyl-cyclobutanecarboxamide], in data set [1], the negative-log IC50 (pIC50) was 5.42. In addition, the “Clearance of Human microsome” value in data set [2] was 6.15 mL/min/kg.

With `CS(=O)(=O)NC(=O)[C@H]1C[C@@H](Oc2cc(C(F)(F)F)ccc2-c2cc(=O)c3cccc(Cl)c3o2)C1` [Example B048-A, Cis-3-[2-(8-chloro-4-oxo-chromen-2-yl)-5-(trifluoromethyl)phenoxy]-N-methylsulfonyl-cyclobutanecarboxamide], the pIC50 in data set [1] is 6.20. In addition, the “Clearance of Human microsome” value in data set [2] came out at 6.15 mL/min/kg.

As usually defined, the pIC50 is −log10 of the IC50, conventionally taken in molar units.
